Structures are written as SMILES.

The text below walks through data of patent US20230123277A1, “COMPOSITIONS COMPRISING 2'-DEOXYCYTIDINE ANALOGS AND USE THEREOF FOR THE TREATMENT OF SICKLE CELL DISEASE AND THALASSEMIA” (AkiraBio, Inc., priority 2021, published 2023).

For data set [1], the system named is pediatric brain tumor models. Conditions: background statement; cited from earlier work.
Data set [2] can be described thus: Relative thermodynamic stability of crystalline polymorphs (DSC). Format: physicochemical. The following applies: Form A compared with Form F, from melting temperatures. Here is the method: DSC ANALYSIS. Thermal events (i.e., melting, re-crystallization) were obtained from DSC thermograms, recorded with a heat flux DSC3+ STARe system (Mettler-Toledo GmbH, Switzerland). The DSC3+ was calibrated for temperature and enthalpy with a small piece of indium (m.p.=156.6° C.; δHf=28.45 J/g) and zinc (m.p.=419.6° C.; δHf=107.5 J/g). Samples (circa 2 mg) were sealed in standard 40 μL aluminum pans, pin-holed and heated in the DSC from 25° C. to 300° C., at a heating rate of 10° C./min. Dry N2 gas, at a flow rate of 50 mL/min was used to purge the DSC equipment during measurement. The cycling DSC experiments were measured in standard 40 μL aluminum pans, pin-holed and heated in the DSC from 25° C. to variable temperatures, then cooled back to 25° C. The heating and cooling rate was 10° C./min. Dry N2 gas, at a flow rate of 50 mL/min was used to purge the DSC equipment during measurement. Afterwards the samples were recovered and analyzed by HT-XRPD.
Form A obtained from the solvent equilibration experiment at RT in TFE was used for the analytical characterization. […] (FIG. 12A). […] The LCMS analysis confirmed the Form A's integrity with a purity of 100% (area %) (FIG. 12C).
Form F obtained from the evaporative crystallization experiment using DMF/acetonitrile (80/20, v/v) was used for characterization. […]

Regarding `Nc1ncn([C@H]2C[C@H](O)[C@@H](CO)S2)c(=O)n1` [5-aza-4′-thio-2′-deoxycytidine], the therapeutic response entry in data set [1] is on record as “no significant therapeutic response”.
As for `Nc1ncn([C@H]2C[C@H](O)[C@@H](CO)S2)c(=O)n1` [Form A, 5-aza-4′-thio-2′-deoxycytidine], the “thermodynamic stability of the polymorph” value in data set [2] is “thermodynamically more stable form”.
Consider `Nc1nc(=O)n([C@H]2C[C@H](O)[C@@H](CO)O2)cc1F` [5-fluoro-2′-deoxycytidine, reference compound], for which the therapeutic response result in data set [1] is on record as “no significant therapeutic response”.
